Experimental findings from US20190367516A1 (Bayer Pharma Aktiengesellschaft, priority 2015, published 2019) are described below.

SMILES strings stand for the structures.

For the experiment, the target named is T1, human M2 receptor (Homo sapiens, UniProt P08172).
T1 sequence (P08172 1-466): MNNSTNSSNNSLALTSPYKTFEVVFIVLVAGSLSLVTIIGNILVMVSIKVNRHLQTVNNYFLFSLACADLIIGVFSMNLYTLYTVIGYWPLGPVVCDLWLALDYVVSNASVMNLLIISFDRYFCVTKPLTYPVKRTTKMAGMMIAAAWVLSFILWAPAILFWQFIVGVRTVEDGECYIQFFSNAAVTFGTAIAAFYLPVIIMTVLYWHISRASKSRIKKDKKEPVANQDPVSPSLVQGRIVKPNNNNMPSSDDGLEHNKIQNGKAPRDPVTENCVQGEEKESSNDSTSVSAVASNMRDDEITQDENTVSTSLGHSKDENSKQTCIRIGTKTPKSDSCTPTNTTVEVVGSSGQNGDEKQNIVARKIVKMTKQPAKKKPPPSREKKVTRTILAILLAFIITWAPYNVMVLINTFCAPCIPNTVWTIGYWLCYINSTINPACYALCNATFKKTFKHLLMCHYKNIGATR
As to conditions: Receptor activity EC50, M2-GIRK1/4 activation test, acetylcholine at EC20; allosteric potency; in some cases mean values from two or more determinations.
As usually defined, the EC50 is the midpoint of the concentration-response curve. Low readings indicate higher potency in that assay, high ones lower potency in that assay. `CN(C)c1ccc2c(=O)c(C(=O)NC34CC5CC(CC(C)(C5)C3)C4)cn(-c3ccc(F)cc3F)c2n1` [Example 41, 1-(2,4-Difluorophenyl)-7-(dimethylamino)-N-(3-methyltricyclo[3.3.1.1^3,7]dec-1-yl)-4-oxo-1,4-dihydro-1,8-naphthyridine-3-carboxamide] showed an EC50 of 39 nM.

Consider `CN(C)c1ccc2c(=O)c(C(=O)NC34CCC(C)(CC3)CC4)cn(-c3ccc(F)cc3F)c2n1` [Example 42, 1-(2,4-Difluorophenyl)-7-(dimethylamino)-N-(4-methylbicyclo[2.2.2]oct-1-yl)-4-oxo-1,4-dihydro-1,8-naphthyridine-3-carboxamide], for which the EC50 stood at 17 nM.

On to `CN(C)c1ccc2c(=O)c(C(=O)NC(C)(C)C)cn(-c3ccc(F)cc3F)c2n1` [Example 43, N-tery-Butyl-1-(2,4-difluorophenyl)-7-(dimethylamino)-4-oxo-1,4-dihydro-1,8-naphthyridine-3-carboxamide], for which the response was half-maximal at 141 nM (EC50).

Turning to `CC[C@H](NC(=O)c1cn(-c2ccc(F)cc2F)c2nc(N(C)C)ccc2c1=O)C(F)(F)F` [Example 45, 1-(2,4-Difluorophenyl)-7-(dimethylamino)-4-oxo-N-[(2S)-1,1,1-trifluorobutan-2-yl]-1,4-dihydro-1,8-naphthyridine-3-carboxamide], the midpoint of the response, the EC50, lay at 28 nM. This EC50 lies about 5-fold lower than the previous one.

For the compound `CN(C)c1ccc2c(=O)c(C(=O)NC34CCC(F)(CC3)CC4)cn(-c3ccc(F)cc3F)c2n1` [Example 47, 1-(2,4-Difluorophenyl)-7-(dimethylamino)-N-(4-fluorobicyclo[2.2.2]oct-1-yl)-4-oxo-1,4-dihydro-1,8-naphthyridine-3-carboxamide], the response was half-maximal at 43 nM (EC50).

As to `CN(C)c1ccc2c(=O)c(C(=O)NCc3c(Cl)cccc3Cl)cn(-c3ccc(F)cc3F)c2n1` [Example 49, N-(2,6-Dichlorobenzyl)-1-(2,4-difluorophenyl)-7-(dimethylamino)-4-oxo-1,4-dihydro-1,8-naphthyridine-3-carboxamide], a half-maximal response (EC50) required 89 nM.

In the case of `CN(C)c1ccc2c(=O)c(C(=O)NCc3ccc(F)cc3F)cn(-c3ccc(F)cc3F)c2n1` [Example 50, N-(2,4-Dmuorobenzyl)-1-(2,4-difluorophenyl)-7-(dimethylamino)-4-oxo-1,4-dihydro-1,8-naphthyridine-3-carboxamide], the EC50 came to 158 nM.

In turn, `Cc1cccc(C)c1CNC(=O)c1cn(-c2ccc(F)cc2F)c2nc(N(C)C)ccc2c1=O` [Example 51, 1-(2,4-Difluorophenyl)-7-(dimethylamino)-N-(2,6-dimethylbenzyl)-4-oxo-1,4-dihydro-1,8-naphthyridine-3-carboxamide] displayed a 50% effective concentration (EC50) of 100 nM.

As for `CN(C)c1ccc2c(=O)c(C(=O)Nc3c(F)cccc3F)cn(-c3ccc(F)cc3F)c2n1` [Example 52, 1-(2,4-Difluorophenyl)-N-(2,6-difluorophenyl)-7-(dimethylamino)-4-oxo-1,4-dihydro-1,8-naphthyridine-3-carboxamide], the EC50 came out at 104 nM.

In turn, `CN(C)c1ccc2c(=O)c(C(=O)NC(C)(C)c3c(F)cccc3F)cn(-c3ccc(F)cc3F)c2n1` [Example 53, 1-(2,4-Difluorophenyl)-N-[2-(2,6-difluorophenyl)propan-2-yl]-7-(dimethylamino)-4-oxo-1,4-dihydro-1,8-naphthyridine-3-carboxamide] gave an EC50 of 58 nM. Compared with the last compound, the EC50 is about 1.8-fold lower.

`Cc1cccc(C)c1NC(=O)c1cn(-c2ccc(F)cc2F)c2nc(N(C)C)ccc2c1=O` [Example 54, 1-(2,4-Difluorophenyl)-7-(dimethylamino)-N-(2,6-dimethylphenyl)-4-oxo-1,4-dihydro-1,8-naphthyridine-3-carboxamide] came in with an EC50 of 85 nM.

Compound `CN(C)c1ccc2c(=O)c(C(=O)Nc3c(Cl)cccc3Cl)cn(-c3ccc(F)cc3F)c2n1` [Example 55, N-(2,6-Dichlorophenyl)-1-(2,4-difluorophenyl)-7-(dimethylamino)-4-oxo-1,4-dihydro-1,8-naphthyridine-3-carboxamide] displayed an EC50 of 36 nM.

`O=C(NC12CC3CC(CC(C3)C1)C2)c1cn(-c2ccc(F)cc2F)c2nc(N3CC[C@H](F)C3)ccc2c1=O` [Example 61, 1-(2,4-Difluorophenyl)-7-[(3S)-3-fluoropyrrolidin-1-yl]-4-oxo-N-(tricyclo[3.3.1.1^3,7]dec-1-yl)-1,4-dihydro-1,8-naphthyridine-3-carboxamide]: the EC50 is 16 nM. Compared with the last compound, the EC50 is about 2.2-fold lower.

On to `O=C(NC12CC3CC(CC(F)(C3)C1)C2)c1cn(-c2ccc(F)cc2F)c2nc(N3CC[C@H](F)C3)ccc2c1=O` [Example 62, 1-(2,4-Difluorophenyl)-7-[(3S,)-3-fluoropyrrolidin-1-yl]-N-(3-fluorotricyclo[3.3.1.1^3,7]dec-1-yl)-4-oxo-1,4-dihydro-1,8-naphthyridine-3-carboxamide], for which the concentration giving a half-maximal response (EC50) was found to be 17 nM.

With `O=C(NC12CCC(F)(CC1)CC2)c1cn(-c2ccc(F)cc2F)c2nc(N3CC[C@H](F)C3)ccc2c1=O` [Example 63, 1-(2,4-Difluorophenyl)-N-(4-fluorobicyclo[2.2.2]oct-1-yl)-7-[(3S)-3-fluoropyrrolidin-1-yl]-4-oxo-1,4-dihydro-1,8-naphthyridine-3-carboxamide], the concentration giving a half-maximal response (EC50) stood at 40 nM.

`CCCC(NC(=O)c1cn(-c2ccc(F)cc2F)c2nc(N3CC[C@H](F)C3)ccc2c1=O)C(F)(F)F` (stereo partly drawn) [Example 66, 1-(2,4-Difluorophenyl)-7-[(3S)-3-fluoropyrrolidin-1-yl]-4-oxo-N-[1,1,1-trifluoropentan-2-yl]-1,4-dihydro-1,8-naphthyridine-3-carboxamide]: a half-maximal effect (EC50) was put at 10 nM.

With `O=C(NCC(F)(F)F)c1cn(-c2ccc(F)cc2F)c2nc(N3CC[C@H](F)C3)ccc2c1=O` [Example 67, 1-(2,4-Difluorophenyl)-7-[(3S)-3-fluoropyrrolidin-1-yl]-4-oxo-N-(2,2,2-trifluoroethyl)-1,4-dihydro-1,8-naphthyridine-3-carboxamide], the EC50 amounted to 138 nM.

The compound `O=C(NC1(C(F)(F)F)CC1)c1cn(-c2ccc(F)cc2F)c2nc(N3CC[C@H](F)C3)ccc2c1=O` [Example 68, 1-(2,4-Difluorophenyl)-7-[(3S)-3-fluoropyrrolidin-1-yl]-4-oxo-N-[1-(trifluormethyl)cyclopropyl]-1,4-dihydro-1,8-naphthyridine-3-carboxamide] gave a 50% effective concentration (EC50) of 58 nM.

Take `CC(C)C(NC(=O)c1cn(-c2ccc(F)cc2F)c2nc(N3CC[C@H](F)C3)ccc2c1=O)C(F)(F)F` (stereo partly drawn) [Example 69, 1-(2,4-Difluorophenyl)-7-[(3S)-3-fluoropyrrolidin-1-yl]-4-oxo-N-[1,1,1-trifluoro-3-methylbutan-2-yl]-1,4-dihydro-1,8-naphthyridine-3-carboxamide]: a half-maximal effect (EC50) was put at 13 nM. This EC50 lies about 4.5-fold lower than the previous one.

Compound `O=C(NC12CC3CC(CC(C3)C1)C2)c1cn(-c2ccc(F)cc2F)c2nc(N3CC[C@@H](F)C3)ccc2c1=O` [Example 72, 1-(2,4-Difluorophenyl)-7-[(3R)-3-fluoropyrrolidin-1-yl]-4-oxo-N-(tricyclo[3.3.1.1^3,7]dec-1-yl)-1,4-dihydro-1,8-naphthyridine-3-carboxamide] displayed an EC50 of 53 nM.

As for `O=C(NC12CC3CC(CC(C3)C1)C2)c1cn(-c2ccc(F)cc2F)c2nc(N3CCC(F)(F)C3)ccc2c1=O` [Example 73, 1-(2,4-Difluorophenyl)-7-(3,3-difluoropyrrolidin-1-yl)-4-oxo-N-(tricyclo[3.3.1.1^3,7]dec-1-yl)-1,4-dihydro-1,8-naphthyridine-3-carboxamide], the midpoint of the response, the EC50, lay at 73 nM.

For the compound `CC[C@H](NC(=O)c1cn(-c2ccc(F)cc2F)c2nc(N3CCC(F)(F)C3)ccc2c1=O)C(F)(F)F` [Example 75, 1-(2,4-Difluorophenyl)-7-(3,3-difluoropyrrolidin-1-yl)-4-oxo-N-[(2S)-1,1,1-trifluorobutan-2-yl]-1,4-dihydro-1,8-naphthyridine-3-carboxamide], the midpoint of the response, the EC50, lay at 73 nM.

As to `O=C(NC12CC3CC(CC(C3)C1)C2)c1cn(-c2ccc(F)cc2F)c2nc(N3CC(F)(F)C(F)(F)C3)ccc2c1=O` [Example 77, 1-(2,4-Difluorophenyl)-4-oxo-7-(3,3,4,4-tetrafluoropyrrolidin-1-yl)-N-(tricyclo[3.3.1.1^3,7]dec-1-yl)-1,4-dihydro-1,8-naphthyridine-3-carboxamide], a half-maximal effect (EC50) was put at 666 nM.

Take `CC(C)CC(NC(=O)c1cn(-c2ccc(F)cc2F)c2nc(N3CCS(=O)(=O)C3)ccc2c1=O)C(F)(F)F` (centres unmarked) [Example 78, 1-(2,4-Difluorophenyl)-7-(1,1-dioxido-1,3-thiazolidin-3-yl)-4-oxo-N-[1,1-trifluoro-4-methylpentan-2-yl]-1,4-dihydro-1,8-naphthyridine-3-carboxamide]: the response was half-maximal at 79 nM (EC50). Against the preceding compound, the EC50 is about 8.4-fold lower.

`O=C(NC12CC3CC(CC(C3)C1)C2)c1cn(-c2ccc(F)cc2F)c2nc(NCCO)ccc2c1=O` [Example 79, 1-(2,4-Difluorophenyl)-7-[(2-hydroxyethyl)amino]-4-oxo-N-(tricyclo[3.3.1.1^3,7]dec-1-yl)-1,4-dihydro-1,8-naphthyridine-3-carboxamide] gave an EC50 of 144 nM.

As to `CC(C)CC(NC(=O)c1cn(-c2ccc(F)cc2F)c2nc(NCCO)ccc2c1=O)C(F)(F)F` (centres unmarked) [Example 80, 1-(2,4-Difluorophenyl)-7-[(2-hydroxyethyl)amino]-4-oxo-N-[1,1,1-trifluoro-4-methylpentan-2-yl]-1,4-dihydro-1,8-naphthyridine-3-carboxamide], the EC50 worked out at 73 nM.
